Measured values: ChEMBL document CHEMBL1641470, “New azoles with antifungal activity: Design, synthesis, and molecular docking” (2011)
≈ marks a conversion by molar mass, not a printed value.

Assays:
Type in all cases: functional
Candida albicans = test: Antifungal activity against Candida albicans ATCC Y0109 after 24 hrs by broth microdilution method
Cryptococcus neoformans = test: Antifungal activity against Cryptococcus neoformans ATCC BLS108 after 72 hrs by broth microdilution method
Candida parapsilosis = test: Antifungal activity against Candida parapsilosis by broth microdilution method; details: Lodderomyces parapsilosis
Candida tropicalis = test: Antifungal activity against Candida tropicalis by broth microdilution method
Trichophyton rubrum = test: Antifungal activity against Trichophyton rubrum by broth microdilution method
Fusarium = test: Antifungal activity against Fusarium by broth microdilution method
Nannizzia gypsea = test: Antifungal activity against Microsporum gypseum by broth microdilution method
Aspergillus fumigatus = test: Antifungal activity against Aspergillus fumigatus by broth microdilution method

SMILES | MIC80 (Candida albicans) | MIC80 (Cryptococcus neoformans) | MIC80 (Candida parapsilosis) | MIC80 (Candida tropicalis) | MIC80 (Trichophyton rubrum) | MIC80 (Fusarium) | MIC80 (Nannizzia gypsea) | MIC80 (Aspergillus fumigatus)
N#Cc1cccc(/C=C/C(=O)Nc2ccc(N3CCN(CC(O)(Cn4cncn4)c4ccc(F)cc4F)CC3)cc2)c1 (stereo not drawn) | 0.0156 µg/mL (≈ 0.0274 µM) | 1 µg/mL (≈ 1.76 µM) | 0.25 µg/mL (≈ 0.439 µM) | 0.25 µg/mL (≈ 0.439 µM) | 1 µg/mL (≈ 1.76 µM) | 16 µg/mL (≈ 28.1 µM) | 0.0625 µg/mL (≈ 0.11 µM) | > 64 µg/mL
O=C(/C=C/c1ccccc1)Nc1ccc(N2CCN(CC(O)(Cn3cncn3)c3ccc(F)cc3F)CC2)c(F)c1 (stereo not drawn) | 0.25 µg/mL (≈ 0.444 µM) | 0.0156 µg/mL (≈ 0.0277 µM) | 0.0625 µg/mL (≈ 0.111 µM) | 0.0625 µg/mL (≈ 0.111 µM) | 0.0625 µg/mL (≈ 0.111 µM) | 0.25 µg/mL (≈ 0.444 µM) | 0.25 µg/mL (≈ 0.444 µM) | 1 µg/mL (≈ 1.78 µM)
O=C(/C=C/c1ccccc1F)Nc1ccc(N2CCN(CC(O)(Cn3cncn3)c3ccc(F)cc3F)CC2)c(F)c1 (stereo not drawn) | 0.25 µg/mL (≈ 0.431 µM) | 0.25 µg/mL (≈ 0.431 µM) | 0.0625 µg/mL (≈ 0.108 µM) | 0.0625 µg/mL (≈ 0.108 µM) | 0.0625 µg/mL (≈ 0.108 µM) | 1 µg/mL (≈ 1.72 µM) | 0.25 µg/mL (≈ 0.431 µM) | 4 µg/mL (≈ 6.89 µM)
O=C(/C=C/c1cccc(F)c1)Nc1ccc(N2CCN(CC(O)(Cn3cncn3)c3ccc(F)cc3F)CC2)c(F)c1 (stereo not drawn) | 0.25 µg/mL (≈ 0.431 µM) | 0.25 µg/mL (≈ 0.431 µM) | 0.0156 µg/mL (≈ 0.0269 µM) | 0.25 µg/mL (≈ 0.431 µM) | 0.25 µg/mL (≈ 0.431 µM) | 0.25 µg/mL (≈ 0.431 µM) | 0.25 µg/mL (≈ 0.431 µM) | 4 µg/mL (≈ 6.89 µM)
O=C(/C=C/c1ccc(F)cc1)Nc1ccc(N2CCN(CC(O)(Cn3cncn3)c3ccc(F)cc3F)CC2)c(F)c1 (stereo not drawn) | 0.25 µg/mL (≈ 0.431 µM) | 0.25 µg/mL (≈ 0.431 µM) | 0.0156 µg/mL (≈ 0.0269 µM) | 0.0156 µg/mL (≈ 0.0269 µM) | 0.0625 µg/mL (≈ 0.108 µM) | 0.25 µg/mL (≈ 0.431 µM) | 0.25 µg/mL (≈ 0.431 µM) | 1 µg/mL (≈ 1.72 µM)
O=C(/C=C/c1ccccc1Cl)Nc1ccc(N2CCN(CC(O)(Cn3cncn3)c3ccc(F)cc3F)CC2)c(F)c1 (stereo not drawn) | 1 µg/mL (≈ 1.67 µM) | 1 µg/mL (≈ 1.67 µM) | 0.25 µg/mL (≈ 0.419 µM) | 0.25 µg/mL (≈ 0.419 µM) | 0.25 µg/mL (≈ 0.419 µM) | 1 µg/mL (≈ 1.67 µM) | 0.25 µg/mL (≈ 0.419 µM) | 4 µg/mL (≈ 6.7 µM)
O=C(/C=C/c1cccc(Cl)c1)Nc1ccc(N2CCN(CC(O)(Cn3cncn3)c3ccc(F)cc3F)CC2)c(F)c1 (stereo not drawn) | 1 µg/mL (≈ 1.67 µM) | 0.25 µg/mL (≈ 0.419 µM) | 0.25 µg/mL (≈ 0.419 µM) | 0.0625 µg/mL (≈ 0.105 µM) | 0.25 µg/mL (≈ 0.419 µM) | 1 µg/mL (≈ 1.67 µM) | 0.0625 µg/mL (≈ 0.105 µM) | 1 µg/mL (≈ 1.67 µM)
O=C(/C=C/c1ccc(Cl)cc1)Nc1ccc(N2CCN(CC(O)(Cn3cncn3)c3ccc(F)cc3F)CC2)c(F)c1 (stereo not drawn) | 0.25 µg/mL (≈ 0.419 µM) | 0.25 µg/mL (≈ 0.419 µM) | 0.0156 µg/mL (≈ 0.0261 µM) | 0.0625 µg/mL (≈ 0.105 µM) | 0.25 µg/mL (≈ 0.419 µM) | 0.25 µg/mL (≈ 0.419 µM) | 0.0625 µg/mL (≈ 0.105 µM) | 1 µg/mL (≈ 1.67 µM)
O=C(/C=C/c1ccc(Cl)c(Cl)c1)Nc1ccc(N2CCN(CC(O)(Cn3cncn3)c3ccc(F)cc3F)CC2)c(F)c1 (stereo not drawn) | 1 µg/mL (≈ 1.58 µM) | 1 µg/mL (≈ 1.58 µM) | 0.25 µg/mL (≈ 0.396 µM) | 0.0625 µg/mL (≈ 0.099 µM) | 0.0625 µg/mL (≈ 0.099 µM) | 0.25 µg/mL (≈ 0.396 µM) | 0.25 µg/mL (≈ 0.396 µM) | 4 µg/mL (≈ 6.33 µM)
O=C(/C=C/c1cccc(Br)c1)Nc1ccc(N2CCN(CC(O)(Cn3cncn3)c3ccc(F)cc3F)CC2)c(F)c1 (stereo not drawn) | 1 µg/mL (≈ 1.56 µM) | 0.0156 µg/mL (≈ 0.0243 µM) | 0.25 µg/mL (≈ 0.39 µM) | 0.0625 µg/mL (≈ 0.0974 µM) | 0.25 µg/mL (≈ 0.39 µM) | 1 µg/mL (≈ 1.56 µM) | 0.25 µg/mL (≈ 0.39 µM) | 4 µg/mL (≈ 6.24 µM)
O=C(/C=C/c1ccc(Br)cc1)Nc1ccc(N2CCN(CC(O)(Cn3cncn3)c3ccc(F)cc3F)CC2)c(F)c1 (stereo not drawn) | 0.25 µg/mL (≈ 0.39 µM) | 0.0156 µg/mL (≈ 0.0243 µM) | 0.0625 µg/mL (≈ 0.0974 µM) | 0.0156 µg/mL (≈ 0.0243 µM) | 0.0625 µg/mL (≈ 0.0974 µM) | 1 µg/mL (≈ 1.56 µM) | 0.0625 µg/mL (≈ 0.0974 µM) | 1 µg/mL (≈ 1.56 µM)
Cc1ccc(/C=C/C(=O)Nc2ccc(N3CCN(CC(O)(Cn4cncn4)c4ccc(F)cc4F)CC3)c(F)c2)cc1 (stereo not drawn) | 0.25 µg/mL (≈ 0.434 µM) | 4 µg/mL (≈ 6.94 µM) | 1 µg/mL (≈ 1.73 µM) | 0.0625 µg/mL (≈ 0.108 µM) | 0.25 µg/mL (≈ 0.434 µM) | 1 µg/mL (≈ 1.73 µM) | 0.25 µg/mL (≈ 0.434 µM) | 1 µg/mL (≈ 1.73 µM)
COc1ccc(/C=C/C(=O)Nc2ccc(N3CCN(CC(O)(Cn4cncn4)c4ccc(F)cc4F)CC3)c(F)c2)cc1OC (stereo not drawn) | 0.25 µg/mL (≈ 0.402 µM) | 1 µg/mL (≈ 1.61 µM) | 0.25 µg/mL (≈ 0.402 µM) | 1 µg/mL (≈ 1.61 µM) | 4 µg/mL (≈ 6.42 µM) | 4 µg/mL (≈ 6.42 µM) | 0.25 µg/mL (≈ 0.402 µM) | > 64 µg/mL
COc1ccc(OC)c(/C=C/C(=O)Nc2ccc(N3CCN(CC(O)(Cn4cncn4)c4ccc(F)cc4F)CC3)c(F)c2)c1 (stereo not drawn) | 0.0625 µg/mL (≈ 0.1 µM) | 1 µg/mL (≈ 1.61 µM) | 1 µg/mL (≈ 1.61 µM) | 0.25 µg/mL (≈ 0.402 µM) | 0.0625 µg/mL (≈ 0.1 µM) | 64 µg/mL (≈ 103 µM) | 1 µg/mL (≈ 1.61 µM) | > 64 µg/mL
O=C(/C=C/c1ccccc1[N+](=O)[O-])Nc1ccc(N2CCN(CC(O)(Cn3cncn3)c3ccc(F)cc3F)CC2)c(F)c1 (stereo not drawn) | 0.25 µg/mL (≈ 0.411 µM) | 1 µg/mL (≈ 1.65 µM) | 1 µg/mL (≈ 1.65 µM) | 1 µg/mL (≈ 1.65 µM) | 0.25 µg/mL (≈ 0.411 µM) | 16 µg/mL (≈ 26.3 µM) | 1 µg/mL (≈ 1.65 µM) | 64 µg/mL (≈ 105 µM)
O=C(/C=C/c1cccc([N+](=O)[O-])c1)Nc1ccc(N2CCN(CC(O)(Cn3cncn3)c3ccc(F)cc3F)CC2)c(F)c1 (stereo not drawn) | 0.0039 µg/mL (≈ 0.00642 µM) | 0.0625 µg/mL (≈ 0.103 µM) | 0.0625 µg/mL (≈ 0.103 µM) | 0.0625 µg/mL (≈ 0.103 µM) | 0.0625 µg/mL (≈ 0.103 µM) | 0.0625 µg/mL (≈ 0.103 µM) | 0.0625 µg/mL (≈ 0.103 µM) | > 64 µg/mL
